These results are taken from patent US20260144808A1, “TREATMENT OF REPEAT EXPANSION DISEASE” (The Johns Hopkins University, priority 2022, published 2026).

Data set [1] has as its system C9orf72 V2 transcripts. The data set is described as follows: RT-qPCR analysis of C9V2 mRNA levels in human RPE1 cells after drug treatment. Particulars: 24 h; for levels of C9orf72 V2 transcripts: vs DMSO, FIG. 13J; for C9V2 mRNA, as measured by RT-qPCR: increasing concentrations of TM or TG, FIG. 13G. It counts as cell-based. The method, then:
(§1) Cell culture, drug treatment, lentiviral shRNA knockdown, and live-cell imaging—HEK293 cells and mouse embryonic fibroblast (MEF) cells were cultured in DMEM containing 10% FBS. Human retinal pigment epithelial 1 (RPE1) cells were cultured in DMEM/F12 containing 10% FBS and 0.01 mg/ml hygromycin B. Human B lymphocytes were cultured in RPMI 1640 medium containing 15% FBS. Human iPSCs were obtained from the NINDS Human Cell and Data Repository and maintained in StemFlex medium (Gibco, A3349401), with medium exchange every other day. All cell lines were checked regularly for mycoplasma contamination. To induce cell stress, RPE1 cells were treated with thapsigargin (30 nM) or tunicamycin (5 μg/ml) for 24 h, and B lymphocytes were treated with thapsigargin (40 nM) or tunicamycin (1 μg/ml) for 24 h. To express PR82, RPE1 cells were transfected with the pLenti-PR82 plasmid and cultured for 48 h.
(§2) Quantitative PCR— Total RNAs were extracted with an RNeasy Plus mini kit (Qiagen, 74136), and cDNAs were synthesized using QuantiTect reverse transcription reagents (Qiagen, 205313). qPCR reactions were carried out on a Bio-Rad thermal cycler using PowerUp SYBR Green Master Mix (ThermoFisher Scientific). The primer sets for C9orf72 transcripts V1, V2, and V3 were described previously (Gendron et al., 2017, incorporated herein by reference). The expression of C9orf72 pre-mRNA was measured with a pair of primers targeted to the junction region between exon 2 and intron 3 (SEQ ID NO: 11 and 12). The mRNA expression levels were analyzed by the ΔΔCt method and normalized against housekeeping genes. In the promoter analysis, the EGFP transcription level was normalized to the GAPDH transcript and the plasmid-encoded ampicillin resistance (AmpR) transcript to exclude any bias induced by differential transfection efficiency.
On the technique in general: Real-time PCR tracks product formation cycle by cycle.

Data set [2] deals with C9HRE iMNs. Nature of the data set: Neuronal survival of C9HRE iMNs under tunicamycin stress, calcein-AM staining. It counts as cell-based, human. On the procedure:
(§3) Motor neuron differentiation of human iPS cells and experimental analyses—The differentiation of iPSCs into motor neurons was performed as previously described (Liu et al., 2018). In brief, iPSCs were seeded onto Matrigel-coated plates and differentiated into neuroepithelial progenitor cells (NEPCs) by culturing 6 days in neural medium (1:1 DMEM/F12:neurobasal medium. GlutaMax, N2 supplement, B27 supplement, and ascorbic acid) containing 3 μM […], 2 μM SB431542, and 2 μM DMH-1. NEPCs were dissociated with dispase (1 U/ml) and split into new plates coated with Matrigel at a ratio of about 1:6. NEPCs were differentiated into motor neuron progenitor cells (MNPCs) using neural medium supplemented with 1 μM CHIR99021, 2 μM SB431542, 2 μM DMH-1, 0.1 μM retinoic acid (RA), and 0.5 μM purmorphamine. After culturing for 6 days, MNPCS were dissociated and cultured in suspension using neural medium containing 0.5 μM RA and 0.1 μM purmorphamine. Six days later, neural spheres were dissociated and plated onto a Matrigel-coated plate. Adherent neural spheres were cultured in neural medium supplemented with 0.5 μM RA, 0.1 μM purmorphamine, and 0.1 μM compound E. After 12 days, mature motor neurons were provided for experiments. The medium was changed every other day during the entire differentiation period.
For knockdown experiments on motor neurons, iMNs were infected twice with the shRNA-expressing lentiviruses, on day 10 and day 12 at the final differentiation stage, and the cells were used on day 15 to allow for efficient DAXX knockdown. Mature iMNs were stressed with tunicamycin (5 μg/ml) in the presence of Na-Phen (10 μM) or 5-aza-2 ([…]) for the indicated times, and neuronal survival at each time point was measured by calcein-AM staining. In brief, iMNs were stained with 3 μM calcein-AM (Invitrogen, C1430), and the fluorescence of surviving iMNs was read using a plate reader (Synergy H1 Hybrid) with excitation/emission at 485 nm/535 nm. Optical fields with calcein-positive iMNs were randomly selected and images captured using a fluorescence microscope (Nikon Eclipse TS100).

The subject of data set [3] is mutant SOD1 mouse model of ALS. The conditions noted are these: Ryu et al., 2005; cited from earlier work.
The subject of data set [4] is C9orf72 protein and mRNA. Nature of the data set: Stress-induced C9orf72 expression in control and C9HRE B lymphocytes (immunoblotting, RT-qPCR). Type of data set: cell-based, human. The conditions noted are these: tunicamycin 1 μg/ml or thapsigargin 40 nM, 24 h; for dynamic regulation of C9orf72 expression: B lymphocytes from C9HRE patients; for stress-responsive induction of C9orf72 expression at both the protein and mRNA levels: normal B lymphocytes. The method, then: as §1, §2
Immunoblotting—Cultured cells were washed twice with PBS and lysed in cold RIPA buffer containing 50 mM Tris (pH 7.5), 0.5% SDS, 150 mM NaCl, 0.5% NP40, 20 mM EDTA, 1 mM PMSF, and Protease Inhibitor Cocktail (1:200, Millipore Sigma, P8340).
(§4) Protein concentrations were measured by the bicinchoninic acid assay (ThermoFisher, 23225). […] Western blot images were captured by an Odyssey scanner (LI-COR) and analyzed with Image Studio (version 5.2.5). […]

For data set [5], the system named is C9orf72 V2 promoter. The data set is described as follows: ChIP-qPCR of H3K9me3 and H3K27ac at the C9orf72 V2 promoter in human RPE1 cells. It counts as cell-based. Particulars: 24 h, vs DMSO, FIG. 13I. The method, then: as §1
Chromatin immunoprecipitation qPCR—ChIP-qPCR analysis of RPE1 cells, B lymphocytes, and iPSC-differentiated motor neurons was performed by using a CHIP assay kit (Millipore Sigma, 17-295). In brief, protein complexes were crosslinked with 1% formaldehyde at 37° C. for 10 min and quenched with glycine at a final concentration of 125 mM at 37° C. for 5 min. […]

The subject of data set [6] is C9V2 mRNA. Nature of the data set: RT-qPCR analysis of C9V2 mRNA in HEK293 cells after stressor treatment. Type of data set: cell-based, human. The conditions noted are these: increasing concentrations of TM or TG, 24 h, FIG. 13F. The method, then:
as §1, with “To express PR82, RPE1 cells were transfected with the pLenti-PR82 plasmid and cultured for 48 h.” left out
(§5) Quantitative PCR— Total RNAs were extracted with an RNeasy Plus mini kit (Qiagen, 74136), and cDNAs were synthesized using QuantiTect reverse transcription reagents (Qiagen, 205313). qPCR reactions were carried out on a Bio-Rad thermal cycler using PowerUp SYBR Green Master Mix (ThermoFisher Scientific). […] The expression of C9orf72 pre-mRNA was measured with a pair of primers targeted to the junction region between exon 2 and intron 3 (SEQ ID NO: 11 and 12). The mRNA expression levels were analyzed by the ΔΔCt method and normalized against housekeeping genes. […]

Data set [7] relates to C9orf72 protein and V2 mRNA. Nature of the data set: Stress-induced C9orf72 expression in control and C9HRE iMNs (immunoblotting, RT-qPCR). It counts as cell-based, human. The conditions noted are these: tunicamycin 5 μg/ml, 24 h. The method, then: as §3, §5, §4
In general terms: In western blotting, separated proteins are transferred to a membrane and probed.

For data set [8], the target named is DAXX (Homo sapiens, UniProt Q9UER7 Q9UER7:1-740). The data set is described as follows: EMSA; significantly preferential over random control; 50 nM probe, 10 mM Tris pH 7.5, 1 mM EDTA, 0.1 mM DTT, BSA, 5% glycerol, RT 30 min. The conditions noted are these: tags: Flag-DAXX (Flag-Daxx/pRK5, Addgene 27974), anti-Flag M2 purified from HEK293 per Methods; label: 5' Alexa Fluor 488 on one strand. On the procedure: Several assays were used to validate the interaction between DAXX and the G4C2 repeat dsDNA. […] Next, experiments were conducted to test whether DAXX protein and G4C2 repeat dsDNA interact directly. In these experiments, human DAXX protein (FIG. 8D) was purified and an electrophoresis mobility shift assay (EMSA) was performed using 5′ AlexaFluor 488-labeled (G4C2)₁₀ dsDNA or a length-matched random sequence control. […] In addition, experiments were performed to establish the association of endogenous DAXX with the expanded C9orf72 (G4C2)n DNA repeats in situ. In these experiments, DNA fluorescent in situ hybridization (FISH) was used to immunostain DAXX on multiple lines of ALS and/or FTD patient lymphocytes carrying C9orf72 HRE mutations. A co-localization between the DAXX immunostaining and FISH staining at the C9HRE locus was indicated by a well-demarcated punctum present only in the nuclei of patient cells and not in the control cells (FIG. 1A).
Chain of DAXX (Q9UER7 whole entry, one chain of several): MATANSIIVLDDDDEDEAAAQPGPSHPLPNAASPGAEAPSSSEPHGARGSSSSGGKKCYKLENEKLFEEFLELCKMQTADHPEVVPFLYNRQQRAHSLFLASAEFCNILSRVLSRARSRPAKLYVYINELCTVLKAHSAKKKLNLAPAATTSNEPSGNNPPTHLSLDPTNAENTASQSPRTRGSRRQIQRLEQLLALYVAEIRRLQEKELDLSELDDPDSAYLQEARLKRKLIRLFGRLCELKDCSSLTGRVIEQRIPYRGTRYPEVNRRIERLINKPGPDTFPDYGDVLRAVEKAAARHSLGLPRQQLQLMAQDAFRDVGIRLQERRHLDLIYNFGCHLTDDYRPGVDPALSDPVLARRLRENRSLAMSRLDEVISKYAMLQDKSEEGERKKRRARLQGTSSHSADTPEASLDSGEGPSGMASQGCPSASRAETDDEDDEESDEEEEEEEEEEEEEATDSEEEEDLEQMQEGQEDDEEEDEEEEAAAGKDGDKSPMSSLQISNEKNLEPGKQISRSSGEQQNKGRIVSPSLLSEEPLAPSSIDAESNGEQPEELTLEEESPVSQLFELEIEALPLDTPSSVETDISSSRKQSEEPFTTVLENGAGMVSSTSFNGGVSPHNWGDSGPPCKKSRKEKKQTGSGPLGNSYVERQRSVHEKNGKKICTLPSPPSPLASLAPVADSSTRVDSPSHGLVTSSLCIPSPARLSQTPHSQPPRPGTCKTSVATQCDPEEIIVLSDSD
(In EMSA bound probe runs differently from free probe, usually more slowly.)

For `Nc1ncn([C@H]2C[C@H](O)[C@@H](CO)O2)c(=O)n1` [Compound 5-aza-2, 5-aza-2′-deoxycytidine], in data set [1] (5-aza-2 2 μM), the “levels of C9orf72 V2 transcripts” value was “significantly upregulated”. Moreover, in data set [2] (TM 5 μg/ml with 5-aza-2 2 μM, vs DMSO, FIG. 7C, D), the “survival of C9HRE iMNs exposed to tunicamycin” value was “significant increase”.
For the molecule `O=C([O-])CCCc1ccccc1.[Na+]` [Na-Phen, sodium phenylbutyrate], the “levels of C9orf72 V2 transcripts” value in data set [1] (Na-Phen 10 μM) is given as “significantly upregulated”. In addition, in data set [2] (TM 5 μg/ml with Na-Phen 10 μM, vs DMSO, FIG. 7C, D), the “protection of C9HRE iMNs from tunicamycin-induced stress” value is recorded as “robust protection”. In data set [3], the “survival in a mutant SOD1 mouse model of ALS” value was “prolongs the survival”.
On to `C/C=C(/C)C(=O)O[C@H]1C(C)=C2[C@H]([C@@H]1OC(=O)CCCCCCC)[C@@](C)(OC(C)=O)C[C@H](OC(=O)CCC)[C@@]1(O)[C@H]2OC(=O)[C@@]1(C)O` [thapsigargin], for which the “C9V2 mRNA, as measured by RT-qPCR” value in data set [1] and in data set [6] was “stress-dependent induction” in each case. Also, the “dynamic regulation of C9orf72 expression” value in data set [4] is on record as “lost”. Moreover, the “stress-responsive induction of C9orf72 expression at both the protein and mRNA levels” value in data set [4] is on record as “observed”. Also, in data set [5] (TG 30 nM), the “levels of the repressive marker H3K9me3 at the C9orf72 V2 promoter” value is recorded as “decreased”.
On to tunicamycin, for which the “C9V2 mRNA, as measured by RT-qPCR” value in data set [1] is “stress-dependent induction”. For the same molecule, in data set [4], the “dynamic regulation of C9orf72 expression” value is on record as “lost”; the “stress-responsive induction of C9orf72 expression at both the protein and mRNA levels” value is “observed”. The “loss of C9HRE iMNs” value in data set [2] (tunicamycin 5 μg/ml alone, FIG. 7A, B) was “time-dependent loss”. Moreover, the “tunicamycin-induced upregulation of C9orf72 expression” value in data set [7] (iMNs derived from C9HRE patients, FIG. 5A-C) is reported as “absent”. Moreover, the C9orf72 protein levels result in data set [7] (iMNs from healthy individuals, vs DMSO, FIG. 5A-B) is “significantly increased”. Besides, the “C9orf72 V2 mRNA levels” value in data set [7] (iMNs from healthy individuals, vs DMSO, FIG. 5C) is “significantly increased”. In data set [5] (TM 5 μg/ml), the “levels of the active marker H3K27ac at the C9orf72 V2 promoter” value is listed as “elevated”. For the same molecule, the “C9V2 mRNA, as measured by RT-qPCR” value in data set [6] is “stress-dependent induction”.

B1: (G4C2)10 dsDNA (dsDNA)
DNA 1: GGGGCCGGGGCCGGGGCCGGGGCCGGGGCCGGGGCCGGGGCCGGGGCCGGGGCCGGGGCC
DNA 2: GGCCCCGGCCCCGGCCCCGGCCCCGGCCCCGGCCCCGGCCCCGGCCCCGGCCCCGGCCCC
In the case of B1, the binding result in data set [8] was “binds”.
